`COc1cc(C2CCN(C[C@H](O)CO)CC2)ccc1Nc1ncc2ccc(-c3ccccc3N(C)S(C)(=O)=O)n2n1` gave a melting point of 108 to 116 °C.
Work on `O=C(Nc1cc(OCCCO/N=C/c2ccc(C(F)(F)F)cc2)ccc1C(=O)O)c1ccc(C(F)(F)F)cc1` yielded a melting point of 209 to 210 °C.
Work on `O=P(c1ccccc1)(c1ccccc1)N1C[C@@H](P(c2ccccc2)c2ccccc2)C[C@H]1CP(c1ccccc1)c1ccccc1` yielded a melting point of 130 °C.
Compound `CN(C)c1ccc(-c2nc3c(N[C@H]4[C@@H](C(N)=O)[C@@H]5C=C[C@H]4C5)c(Br)cnc3[nH]2)cc1` has a melting point of 264 to 265 °C.
In the case of `CN(C(=O)c1ccc(N2CCOCC2)cc1)[C@@H]1CCN(C(=O)C2CCN(C(=O)C3(O)CC3)CC2)C[C@H]1c1ccc(Cl)c(Cl)c1`, the melting point is reported as 151 to 153 °C.
`CC(c1ccccc1)N1CCC(n2cnc3ccc(Cl)cc3c2=O)CC1` (configuration not stated) showed a melting point of 160 to 162 °C.
With `NC(=O)CCCC(=O)NCCS` the melting point was 127 °C.
For `O=C(O)c1cc2cc(O)c(O)cc2nc1C(=O)O`, the melting point was over 300 °C.
`CCCOc1ccccc1-c1nc(C)cc(O)n1` gave a melting point of 109 to 110 °C.
`CN(C)S(=O)(=O)c1ccc(NC(=O)C2(C)CC2)cc1C(F)(F)F` showed a melting point of 153 to 156 °C.
Work on `O=C1C2=NCCCN2c2cc(Cl)c([N+](=O)[O-])cc21` yielded a melting point of 152 to 165 °C.
In the case of `CCOC(=O)c1cc(=O)cc(-c2ccc(O)cc2)o1`, the melting point is reported as 213 to 215 °C.
For `CC(=O)OC(C)c1ccc(CCOc2ccc(CC3SC(=O)NC3=O)cc2)nc1` (configuration not stated), the melting point was 143 to 144 °C.
`CCC(=O)N1CCC(NC(=O)N[C@@H]2C[C@H]2c2ccccc2)CC1` (relative stereo) gave a melting point of 155 to 158 °C.
`CCOC(=O)C(C)c1ccc(O)c(NC(C)=O)c1` (configuration not stated) gave a melting point of 137 to 141 °C.
Work on `O=C(C=P(c1ccccc1)(c1ccccc1)c1ccccc1)COc1ccccc1Cl` yielded a melting point of 107 to 109 °C.
Work on `O=CN1CCC(c2nn(-c3ccc(C(F)(F)F)cc3)c3cc(F)ccc23)CC1` yielded a melting point of 142 to 144 °C.
With `COc1ccc(S(=O)(=O)CC(O)(CS(=O)(=O)c2ccc(F)cc2)C(=O)NO)cc1` (configuration not stated) the melting point was 85 to 90 °C.
With `COC(=O)C(C)Nc1c(C)csc1C` (configuration not stated) the melting point was 33 to 34 °C.
Work on `CCC(O)CNC(=O)c1nn(C2CCCCO2)cc1NC(=O)c1ccccn1` (configuration not stated) yielded a melting point of 160 to 161 °C.
`CCOC(=O)CCN(C)Cc1ccc(NC(=O)C2=Cc3cc(-c4ccc(N5CCOCC5)cc4)ccc3S(=O)(=O)CC2)cc1` gave a melting point of 209 to 211 °C.
`COc1ccc(-c2nc(SC(F)(F)C(F)F)[nH]c2-c2ccncc2)cc1` gave a melting point of 212 to 214 °C.
Compound `COC(=O)c1ccccc1S(=O)(=O)NCC(=O)N[C@@H](Cc1ccccc1)C(=O)O` has a melting point of 140 to 143 °C.
Compound `CC[C@H](C)[C@H](N)C(=O)NC(C)COc1ccc(C#N)cc1` (some centres not stated) has a melting point of 64 to 67 °C.
`O=C(Cn1cccn1)c1ccc(F)cc1F` showed a melting point of 76.4 °C.
With `COc1c(C)c2c(c(OS(C)(=O)=O)c1C/C=C(/Cl)CBr)C(=O)OC2` the melting point was 146 to 148 °C.
In the case of `OCCNC(=S)NC1CCc2ccccc2C1` (configuration not stated), the melting point is reported as 89 to 91 °C.
In the case of `COc1ccc2c(=O)c(-c3nnnn3C)cn(C)c2c1`, the melting point is reported as 270 to 273 °C.
With `O=C1Nc2cc(-c3ccccc3)ccc2OC1CCO` (configuration not stated) the melting point was 170 to 171 °C.
`COc1ccc(C2=NNC(=O)CC2)cc1N` gave a melting point of 218 to 220 °C.
`CCCOc1nc(C(F)(F)C(F)(F)F)cc(=O)n1-c1cc(O)c(Cl)cc1F` showed a melting point of 109 to 111 °C.
`N#Cc1ccc(N(Cc2ccccc2)n2cnnc2)cc1-c1ccc(OS(N)(=O)=O)cc1` gave a melting point of 157 to 160 °C.
Compound `Cc1sc(N2CCOCC2)nc1CCOc1ccc(C[C@H](Nc2ccccc2C(=O)c2ccccc2)C(=O)O)cc1` has a melting point of 148 to 151 °C.
In the case of `CC(C(=O)O)c1cc(CC(=O)O)c(-c2ccccc2)s1` (configuration not stated), the melting point is reported as 145 to 146 °C.
In the case of `N#Cc1cc([N+](=O)[O-])c(O)c(O)c1F`, the melting point is reported as 154 °C.
With `CCc1nc2c(N)nc3ccc(O)cc3c2n1CCCCNS(C)(=O)=O` the melting point was 128 to 130 °C.
With `COCCC1CCCCc2c1oc(=O)c(C(c1ccccc1)C1CC1)c2O` (configuration not stated) the melting point was 58 to 60 °C.
Compound `CC(C)(C)c1cc2c(c(C(C)(C)C)c1)OP(Cl)Oc1c(cc(C(C)(C)C)cc1C(C)(C)C)C2` has a melting point of 227 to 230 °C.
`CCC(COCc1cc(OC)c(O)c(OC)c1)(c1cccs1)N(C)C` (configuration not stated) gave a melting point of 126 to 127 °C.
Compound `Cc1ccccc1C(=O)Nc1ccc(C(=O)N2CCCC(N(C)CC#N)c3ccccc32)cc1` (configuration not stated) has a melting point of 227 to 228 °C.
`Clc1cnc(SCI)nc1` gave a melting point of 67 °C.
In the case of `CCOC(=O)c1ccc(CCN2CC=C(c3c[nH]c(-c4ccc(F)cc4)c3-c3ccncc3)CC2)cc1`, the melting point is reported as 217 to 218 °C.
With `COc1ccsc1-c1nsc2ccc(N3C(=O)C4=C(CCCC4)C3=O)cc12` the melting point was 146 to 149 °C.
`CCCCc1nc2cccc(C(=O)OC)c2n1Cc1ccc(-c2ccccc2N2CC(=O)NC2=O)cc1` showed a melting point of 149 to 151 °C.
`Cc1ccccc1C(Oc1cc(OCc2ccc3ncoc3c2)ccc1C#N)C(=O)O` (racemic) gave a melting point of 172 to 178 °C.
`N#CC1=C(C#N)Sc2nc3ccccc3nc2S1` showed a melting point of over 300 °C.
`N#CC1(NCC2CCCCC2)CCN(Cc2ccccc2)CC1` showed a melting point of 128 to 130 °C.
For `COC(=O)c1c(-c2ccccc2)nn2ccc3c(c12)C(CC#N)CC3` (configuration not stated), the melting point was 214 to 215 °C.
For `Cn1c2cc(Cl)ccc2c(=O)c2c(Br)cccc21`, the melting point was 223 to 225 °C.
Work on `COc1ccc(Cl)c2c1CCC(CCl)=C2` yielded a melting point of 68 to 69.5 °C.
In the case of `COc1ccc2c(=O)c3cccc(OCc4ccccc4)c3oc2c1`, the melting point is reported as 158 °C.
Work on `Cc1ccc(C=CCC(C(=O)C=Cc2ccc(Cl)cc2)c2ccccc2)cc1` (configuration not stated) yielded a melting point of 114 to 118 °C.
Work on `O=C1c2ccccc2-n2cncc2[C@@H]2CCN12` yielded a melting point of 195 to 197 °C.
Work on `CCc1ccc(-c2cccc(-c3ccnc4c(C(=O)c5cccs5)cnn34)c2)cc1` yielded a melting point of 117 to 119 °C.
With `O=C(c1cc2c([nH]c3ccccc32)s1)N1CCOCC1` the melting point was 92 to 95 °C.
`CCN(CC)CCN=C1CC(c2ccc(Cl)c(Cl)c2)Cc2c1c(=O)c1cc(Cl)ccc1n2O` (configuration not stated) showed a melting point of 212 to 213 °C.
With `Cc1cn(-c2ccc([N+](=O)[O-])c(C)c2)c(C)n1` the melting point was 136 to 138 °C.
Compound `COc1ccc(-c2c(C(=O)N3CCOCC3)ccc3cc(Cl)ccc23)cc1OC` has a melting point of 157 to 159 °C.
`Cc1ccc(S(=O)(=O)N2[C@H](CCCc3nnnn3C)CC[C@@H]2c2ccc(F)cc2)cc1` (racemic) showed a melting point of 153 °C.
With `CC(O)=C(C#N)C(=O)N1CCN(c2ccc(NC(=O)c3cnn(-c4ccc(F)cc4)c3C)cc2C#N)CC1` the melting point was 210 °C.
With `CCn1c(=O)n(CC)c2cc3c(N4CCN(C(=O)Nc5ccc(Oc6ccccc6)cc5)CC4)ncnc3cc21` the melting point was 168 to 169 °C.
With `O=C1N=c2ccc(OCCBr)cc2=N1` the melting point was 225 to 226 °C.
Compound `CCn1c(=O)n(OCc2ccccc2)c(=O)c2cc(F)c(F)cc21` has a melting point of 133 to 135 °C.
`CCCCCCCN(CCCCCS(=O)(=O)c1nc(-c2ccccc2)c(-c2ccccc2)[nH]1)C(=O)Nc1ccc(F)cc1F` showed a melting point of 66 to 68 °C.
With `O=C(O)CCc1cc(C=Nc2ccccc2O)c(O)c(C=Nc2ccccc2O)c1` the melting point was 204 to 205 °C.
`S=C1Nc2ccccc2CN(c2ccccc2)N1` showed a melting point of 242 to 244 °C.
For `CC1=NN=C(C=Cc2ccccc2F)c2cc3c(cc2C1)OCO3`, the melting point was 138 to 141 °C.
Work on `CC(C)(C)c1cccc(S(=O)(=O)n2c(Cc3ccc(C(=O)O)cc3)cc3cc(C(F)(F)F)ccc32)c1` yielded a melting point of 128 °C.
`NS(=O)(=O)c1ccccc1C(Cl)Cl` gave a melting point of 131 to 132 °C.
Work on `COc1ccccc1-c1nc2cc(NC(=O)c3c(C(=O)N4CCC4)cnn3C)ccn2n1` yielded a melting point of 258 °C.
`CCOC(=O)c1c(-c2ccc(F)cc2)cc(-c2cccs2)nc1C(C)C` showed a melting point of 114 to 115 °C.
With `Cn1nnnc1SCCCC(=O)c1ccc2ccccc2c1` the melting point was 118 to 120 °C.
Compound `CC(=O)c1cccc(-c2nc(Nc3ccc(OC(F)(F)F)cc3)cc(N3CCOCC3)n2)c1` has a melting point of 218 to 220 °C.
With `O=C(NCCCl)NC1OC(CO)C(O)C1O` (configuration not stated) the melting point was 166 to 168 °C.
Work on `COC(=O)[C@H]1CC[C@H](NC(=O)c2cc(-c3ccc(C(=N)N)cc3)nn(Cc3ccccc3)c2=O)CC1` yielded a melting point of 168 to 173 °C.
In the case of `CCCC(NOCC)=C1C(=O)CC(C2=C(C)CCCC2(C)C)C(C(=O)OC)C1=O` (configuration not stated), the melting point is reported as 70 °C.
Work on `Cc1ccc(O)c(C(=O)Nc2cc(Cl)cc(Cl)c2)c1` yielded a melting point of 216 to 217 °C.
With `Cc1ccc(CC(CNC(=O)C(C)c2ccc(NS(C)(=O)=O)c(F)c2)COC(=O)C(C)(C)C)cc1C` (configuration not stated) the melting point was 46 to 48 °C.
With `CC(C)C1(C)N=C(c2ncccc2C(=O)O)N(C#N)C1=O` (configuration not stated) the melting point was 150 to 153 °C.
`O=c1ccc(Br)cn1CC1(O)CCN(Cc2ccccc2F)CC1` showed a melting point of 184 to 186 °C.
With `OCCN1CC=C(c2c[nH]c3ccccc23)CC1` the melting point was 164 to 165 °C.
`CC1(C)C(=O)Oc2ccc3cc(C#N)c(Cn4cncn4)cc3c21` gave a melting point of 198 °C.
Work on `C=C1CN(c2c(F)cc3c(=O)c(C(=O)O)cn([C@@H]4C[C@@H]4F)c3c2OC)C[C@@]1(C)N` yielded a melting point of 100 to 102 °C.
For `O=C(O)C1C=COc2cc(Cl)c(Cl)cc21` (configuration not stated), the melting point was 114 to 117 °C.
Work on `O=C(N[C@@H](Cc1ccc(C(F)(F)F)cc1)[C@H](O)c1ccc(F)cc1)c1ccc(C(F)F)c2ccccc12` yielded a melting point of 212 to 213 °C.
`C[C@]1(COc2ccc(N3CCN(C(=O)NCc4ccc(OC(F)(F)F)cc4)CC3)cc2)Cn2cc([N+](=O)[O-])nc2O1` showed a melting point of 166 to 168 °C.
In the case of `COc1cc(Cc2cnc(N)nc2N)cc(OC)c1Cl`, the melting point is reported as 218 °C.
In the case of `CC(Cc1cc(NC(=O)NCc2ccccc2)cc2ccoc12)NC(=O)OC(C)(C)C` (configuration not stated), the melting point is reported as 167 to 168 °C.
Compound `COc1cc2c(cc1OC)C(C=NO)c1ccccc1CC2` (configuration not stated) has a melting point of 176 to 177 °C.
In the case of `Cc1cc(C)c(NC(=O)CN2CCN(CCSc3nc4ccccc4o3)CC2)c(C)n1`, the melting point is reported as 159 to 160 °C.
`FC(F)Oc1ccc(C2=NNCC2c2ccccc2)cc1` (configuration not stated) showed a melting point of 65 to 75 °C.
Compound `NS(=O)(=O)c1cc(C(=O)O)cc(NCc2ccco2)c1Oc1ccccc1` has a melting point of 219 to 220 °C.
`COC(=O)CC(Nc1ccccc1OC)c1ccc2ccccc2n1` (configuration not stated) gave a melting point of 119 to 121 °C.
Work on `CC1=C(c2ccc(CC(C)NCC(O)c3cccc(Cl)c3)cc2)CCC(=O)N1` (configuration not stated) yielded a melting point of 103 to 106 °C.
`COc1ccc(-c2nc3c(o2)C(=O)c2ccccc2C3=O)cc1` gave a melting point of over 260 °C.
For `C=Cc1ccc(OCc2ccccc2)cc1OCC(=O)c1ccc(OC)cc1`, the melting point was 93 to 94 °C.
With `CCCCC(CC(=O)Nc1cc(C(N)=O)ccc1C(C)(C)C)c1ccc(OC)cc1OC` (configuration not stated) the melting point was 186 to 188 °C.

— a melting point compilation (Tetko et al.; mined from patent text by program, amines drawn as free bases though some values may be those of a salt)
